# Laboratory results from PubChem BioAssay AID330 (DTP/NCI, 2004).
# “And” between values parts separate entries of the source, which are not always exact repeats. Equal values may be shown once. Inconclusive results and toxic doses are left out.
# Tested on: P388 leukemia ip, CD2F1 mice, survival T/C
# Assay: NCI In Vivo Anticancer Drug Screen. Data for tumor model P388 Leukemia (intraperitoneal) in CD2F1 (CDF1) mice
# Conditions: endpoint: median survival time, higher = longer survival
# Outline: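 Mice carrying the transplanted tumor received test compound or vehicle. Survival was recorded in each group, and the value is the treated-group measurement divided by that of the vehicle-treated control group.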
# [1] = dose: 50.0 mg/kg/injection, schedule: Q01DX005 (ip), vehicle: Klucel (hydroxypropylcellulose) (HPC)
# [2] = dose: 100.0 mg/kg/injection, schedule: Q01DX005 (ip), vehicle: Klucel (hydroxypropylcellulose) (HPC)
# [3] = dose: 200.0 mg/kg/injection, schedule: Q01DX005 (ip), vehicle: Klucel (hydroxypropylcellulose) (HPC)
# [4] = dose: 50.0 mg/kg/injection, schedule: Q01DX005 (ip), vehicle: saline with Tween-80
# [5] = dose: 50.0 mg/kg/injection, schedule: Q01DX009 (ip), vehicle: saline with Tween-80
# [6] = dose: 100.0 mg/kg/injection, schedule: Q01DX009 (ip), vehicle: saline with Tween-80
# [7] = dose: 200.0 mg/kg/injection, schedule: Q01DX009 (ip), vehicle: saline with Tween-80
# [8] = dose: 100.0 mg/kg/injection, schedule: Q01DX005 (ip), vehicle: saline with Tween-80
# [9] = dose: 200.0 mg/kg/injection, schedule: Q01DX005 (ip), vehicle: saline with Tween-80
# [10] = dose: 60.0 mg/kg/injection, schedule: Q01DX005 (ip), vehicle: saline with Tween-80
# [11] = dose: 120.0 mg/kg/injection, schedule: Q01DX005 (ip), vehicle: saline with Tween-80
# [12] = dose: 240.0 mg/kg/injection, schedule: Q01DX005 (ip), vehicle: saline with Tween-80
# [13] = dose: 50.0 mg/kg/injection, schedule: Q01DX009 (ip), vehicle: Klucel (hydroxypropylcellulose) (HPC)
# [14] = dose: 100.0 mg/kg/injection, schedule: Q01DX009 (ip), vehicle: Klucel (hydroxypropylcellulose) (HPC)
# [15] = dose: 200.0 mg/kg/injection, schedule: Q01DX009 (ip), vehicle: Klucel (hydroxypropylcellulose) (HPC)
compound,measurement,setting,value
C(=Nc1ccncc1)c1c[nH]c2ccccc12,T/C,"dose: 3.12 mg/kg/injection, schedule: Q01DX001 (ip), vehicle: Klucel (hydroxypropylcellulose) (HPC)",104 % of control
same,T/C,"dose: 6.25 mg/kg/injection, schedule: Q01DX001 (ip), vehicle: Klucel (hydroxypropylcellulose) (HPC)",98 % of control
same,T/C,"dose: 12.5 mg/kg/injection, schedule: Q01DX001 (ip), vehicle: Klucel (hydroxypropylcellulose) (HPC)",101 % of control and 104 % of control
O=S(=O)(C1=NOC(c2ccccc2)C1)c1ccccc1 (stereo not given),T/C,[1],99 % of control
same,T/C,[2],95 % of control
same,T/C,[3],93 % of control
O=NN1CCCNC1=O,T/C,"dose: 12.5 mg/kg/injection, schedule: Q04DX003 (ip), vehicle: saline",118 % of control
same,T/C,"dose: 20.0 mg/kg/injection, schedule: Q01DX009 (ip), vehicle: saline with Tween-80",163 % of control
same,T/C,"dose: 37.5 mg/kg/injection, schedule: Q01DX009 (ip), vehicle: saline with Tween-80",163 % of control
same,T/C,"dose: 40.0 mg/kg/injection, schedule: Q01DX009 (ip), vehicle: saline with Tween-80",231 % of control
same,T/C,"dose: 50.0 mg/kg/injection, schedule: Q04DX003 (ip), vehicle: saline",172 % of control
same,T/C,"dose: 66.0 mg/kg/injection, schedule: Q04DX003 (ip), vehicle: saline",179 % of control
same,T/C,"dose: 75.0 mg/kg/injection, schedule: Q01DX009 (ip), vehicle: saline with Tween-80",86 % of control
same,T/C,"dose: 100.0 mg/kg/injection, schedule: Q04DX003 (ip), vehicle: saline",191 % of control and 216 % of control
CNc1cccc2c1C(=O)c1ccccc1C2=O,T/C,"dose: 50.0 mg/kg/injection, schedule: Q04DX003 (ip), vehicle: saline with Tween-80",93 % of control
same,T/C,"dose: 100.0 mg/kg/injection, schedule: Q04DX003 (ip), vehicle: saline with Tween-80",91 % of control
same,T/C,"dose: 200.0 mg/kg/injection, schedule: Q04DX003 (ip), vehicle: saline with Tween-80",97 % of control
same,T/C,"dose: 400.0 mg/kg/injection, schedule: Q04DX003 (ip), vehicle: saline with Tween-80",90 % of control
CNC(=O)OCC1=C(Sc2ccccc2)C(=O)C(OC)=C(OC)C1=O,T/C,"dose: 12.5 mg/kg/injection, schedule: Q01DX005 (ip), vehicle: saline with Tween-80",106 % of control
same,T/C,"dose: 25.0 mg/kg/injection, schedule: Q01DX005 (ip), vehicle: saline with Tween-80",108 % of control
same,T/C,[4],103 % of control and 110 % of control
CC(C)NCC(O)c1ccc(NS(C)(=O)=O)cc1 (stereo not given),T/C,"dose: 50.0 mg/kg/injection, schedule: Q01DX005 (ip), vehicle: saline",108 % of control
same,T/C,"dose: 100.0 mg/kg/injection, schedule: Q01DX005 (ip), vehicle: saline",100 % of control
same,T/C,"dose: 200.0 mg/kg/injection, schedule: Q01DX005 (ip), vehicle: saline",104 % of control
COC(=O)N1CCCc2cc3c(cc(OC)c(OC)c3c3[nH]c4ccccc4c23)CC1,T/C,"dose: 50.0 mg/kg/injection, schedule: Q01DX005 (ip), vehicle: Klucel + Tween-80",100 % of control
same,T/C,"dose: 100.0 mg/kg/injection, schedule: Q01DX005 (ip), vehicle: Klucel + Tween-80",95 % of control
same,T/C,"dose: 200.0 mg/kg/injection, schedule: Q01DX005 (ip), vehicle: Klucel + Tween-80",91 % of control
O=C(O)Cc1nn[nH]n1,T/C,"dose: 100.0 mg/kg/injection, schedule: Q04DX003 (ip), vehicle: Klucel (hydroxypropylcellulose) (HPC)",107 % of control
same,T/C,"dose: 200.0 mg/kg/injection, schedule: Q04DX003 (ip), vehicle: Klucel (hydroxypropylcellulose) (HPC)",108 % of control
CC(C)(C)c1ccc(OCCSCCOc2ccc(C(C)(C)C)cc2)cc1,T/C,[5],90 % of control
same,T/C,[6],90 % of control
same,T/C,[7],90 % of control
COc1cc2c(cc1OC)C13CC[N+]4([O-])CC5=CCOC6CC(=O)N2C1C6C5CC34 (stereo not given),T/C,"dose: 15.0 mg/kg/injection, schedule: Q01DX005 (ip), vehicle: saline",107 % of control
same,T/C,"dose: 30.0 mg/kg/injection, schedule: Q01DX005 (ip), vehicle: saline",108 % of control
same,T/C,"dose: 60.0 mg/kg/injection, schedule: Q01DX005 (ip), vehicle: saline",106 % of control and 107 % of control
same,T/C,"dose: 120.0 mg/kg/injection, schedule: Q01DX005 (ip), vehicle: saline",100 % of control
same,T/C,"dose: 240.0 mg/kg/injection, schedule: Q01DX005 (ip), vehicle: saline",97 % of control
COc1cccc2c1C(=O)c1c(O)c3c(c(O)c1C2=O)C[C@@](O)(C(C)=O)C[C@@H]3OC1CC(NC(=O)C(N)CCN)C(O)C(C)O1 (stereo not given in full),T/C,"dose: 5.0 mg/kg/injection, schedule: Q04DX003 (ip), vehicle: water",96 % of control
same,T/C,"dose: 10.0 mg/kg/injection, schedule: Q04DX003 (ip), vehicle: water",94 % of control
same,T/C,"dose: 20.0 mg/kg/injection, schedule: Q04DX003 (ip), vehicle: water",99 % of control
same,T/C,"dose: 40.0 mg/kg/injection, schedule: Q04DX003 (ip), vehicle: water",105 % of control
same,T/C,"dose: 80.0 mg/kg/injection, schedule: Q04DX003 (ip), vehicle: water",118 % of control
same,T/C,"dose: 160.0 mg/kg/injection, schedule: Q04DX003 (ip), vehicle: distilled water + Tween-80",106 % of control
same,T/C,"dose: 320.0 mg/kg/injection, schedule: Q04DX003 (ip), vehicle: distilled water + Tween-80",105 % of control
Clc1ccc(-c2csc3sc4ccccc4[n+]23)cc1,T/C,[4],111 % of control
same,T/C,[8],118 % of control
same,T/C,[9],113 % of control
CC1=C[C@H]2C[C@]3(C)CC[C@H]4[C@H](C)C(=O)O[C@@H]4[C@@]13OO2,T/C,"dose: 0.75 mg/kg/injection, schedule: Q01DX005 (ip), vehicle: Klucel (hydroxypropylcellulose) (HPC)",107 % of control
same,T/C,"dose: 1.5 mg/kg/injection, schedule: Q01DX005 (ip), vehicle: Klucel (hydroxypropylcellulose) (HPC)",103 % of control
same,T/C,"dose: 3.0 mg/kg/injection, schedule: Q01DX005 (ip), vehicle: Klucel (hydroxypropylcellulose) (HPC)",90 % of control
same,T/C,"dose: 6.0 mg/kg/injection, schedule: Q01DX005 (ip), vehicle: Klucel (hydroxypropylcellulose) (HPC)",111 % of control
CCOC(=O)COc1ccc(NC(C)=O)cc1,T/C,[10],103 % of control
same,T/C,[11],103 % of control
same,T/C,[12],95 % of control
COC(c1ccccc1)(c1ccccc1)c1ccc2ccc3ccccc3c2c1,T/C,[1],91 % of control
same,T/C,[2],96 % of control
same,T/C,[3],95 % of control
CC1C(c2ccccc2)OCCN1C(N)=S (stereo not given),T/C,[13],108 % of control
same,T/C,[14],101 % of control
same,T/C,[15],101 % of control
CCCCCCNC(=S)Nc1ccc2cc(C)ccc2n1,T/C,[13],91 % of control
same,T/C,[14],91 % of control
same,T/C,[15],94 % of control
Cc1cc(Cl)ccc1N=Cc1ccc(OCc2ccccc2)cc1,T/C,[5],92 % of control
same,T/C,[6],90 % of control
same,T/C,[7],88 % of control
Cc1ccc(N(CC(=O)O)S(=O)(=O)c2ccccc2)c(C)c1Cc1cccc(Br)c1,T/C,[4],101 % of control
same,T/C,[8],104 % of control
same,T/C,[9],101 % of control
Cc1cc(CSCCc2nc3ccccc3[nH]2)c(O)c(CSCCc2nc3ccccc3[nH]2)c1,T/C,[10],107 % of control
same,T/C,[11],93 % of control
same,T/C,[12],90 % of control
ClC1CC[N-]CC1.ClC1CC[N-]CC1.[Cl][Pt+2]([Cl])([Cl])[Cl],T/C,"dose: 1.56 mg/kg/injection, schedule: Q01DX009 (ip), vehicle: saline",100 % of control
same,T/C,"dose: 3.13 mg/kg/injection, schedule: Q01DX009 (ip), vehicle: saline",108 % of control
same,T/C,"dose: 6.25 mg/kg/injection, schedule: Q01DX009 (ip), vehicle: Klucel (hydroxypropylcellulose) (HPC)",166 % of control
same,T/C,"dose: 12.5 mg/kg/injection, schedule: Q01DX009 (ip), vehicle: Klucel (hydroxypropylcellulose) (HPC)",192 % of control
same,T/C,"dose: 12.5 mg/kg/injection, schedule: Q01DX009 (ip), vehicle: saline",153 % of control
same,T/C,"dose: 25.0 mg/kg/injection, schedule: Q01DX009 (ip), vehicle: Klucel (hydroxypropylcellulose) (HPC)",245 % of control
same,T/C,"dose: 25.0 mg/kg/injection, schedule: Q01DX009 (ip), vehicle: saline",172 % of control
same,T/C,[13],113 % of control
